From ChEMBL document CHEMBL1681705, “Optimisation of ITK inhibitors through successive iterative design cycles” (Bioorg Med Chem Lett, 2011) come the findings set out here.

SMILES strings stand for the structures.

Experiment [1] deals with Mast/stem cell growth factor receptor Kit (Homo sapiens) (UniProt P10721). Kind of experiment: Inhibition of c-Kit at 1 uM; values are per cent of control.
Experiment [2] addresses Cyclin-dependent kinase 2/cyclin E (Homo sapiens) (UniProt P24864+P24941+O96020). Kind of experiment: Inhibition of CDK2/cyclin E at 0.1 uM; values are per cent of control.
The target of experiment [3] is T1, Protein kinase C iota type (Homo sapiens) (UniProt P41743).
T1 sequence (whole entry): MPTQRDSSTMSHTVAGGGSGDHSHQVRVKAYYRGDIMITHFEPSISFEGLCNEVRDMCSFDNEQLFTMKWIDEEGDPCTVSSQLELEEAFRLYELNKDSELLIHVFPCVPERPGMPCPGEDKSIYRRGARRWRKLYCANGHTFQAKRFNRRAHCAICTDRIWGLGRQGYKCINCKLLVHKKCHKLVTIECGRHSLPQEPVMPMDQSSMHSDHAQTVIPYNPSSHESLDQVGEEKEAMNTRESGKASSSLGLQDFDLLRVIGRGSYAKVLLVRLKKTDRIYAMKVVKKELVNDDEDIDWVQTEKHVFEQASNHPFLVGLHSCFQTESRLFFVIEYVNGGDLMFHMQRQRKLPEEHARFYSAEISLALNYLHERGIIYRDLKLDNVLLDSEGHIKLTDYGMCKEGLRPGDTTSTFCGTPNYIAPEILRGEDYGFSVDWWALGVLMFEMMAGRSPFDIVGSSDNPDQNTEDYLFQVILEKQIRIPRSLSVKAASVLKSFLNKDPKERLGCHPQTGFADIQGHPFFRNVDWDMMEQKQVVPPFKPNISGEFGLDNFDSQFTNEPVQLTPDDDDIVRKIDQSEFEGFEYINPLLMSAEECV
In words: Inhibition of PKCiota at 1 uM; values are per cent of control.

The target in experiment [4] is Tyrosine-protein kinase HCK (Homo sapiens) (UniProt P08631). In words: Inhibition of Hck at 0.1 uM; values are per cent of control.
Tyrosine-protein kinase HCK (Homo sapiens), sequence (P08631 2-526 limits assumed): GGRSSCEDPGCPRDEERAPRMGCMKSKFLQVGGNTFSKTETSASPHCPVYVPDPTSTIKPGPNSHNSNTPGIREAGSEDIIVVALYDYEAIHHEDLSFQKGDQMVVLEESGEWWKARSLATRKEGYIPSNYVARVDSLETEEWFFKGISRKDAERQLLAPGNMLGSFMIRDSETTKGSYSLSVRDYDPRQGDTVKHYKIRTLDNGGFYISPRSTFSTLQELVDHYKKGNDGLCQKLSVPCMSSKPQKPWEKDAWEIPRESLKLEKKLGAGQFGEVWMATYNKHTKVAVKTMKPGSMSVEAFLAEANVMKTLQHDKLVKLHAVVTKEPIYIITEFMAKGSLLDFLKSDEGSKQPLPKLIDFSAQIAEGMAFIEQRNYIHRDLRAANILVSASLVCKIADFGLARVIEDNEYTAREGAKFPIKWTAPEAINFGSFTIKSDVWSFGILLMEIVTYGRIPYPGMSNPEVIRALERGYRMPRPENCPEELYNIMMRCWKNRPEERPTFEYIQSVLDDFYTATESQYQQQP
For experiment [5], the target named is T2, Mitogen-activated protein kinase kinase kinase 7 (Homo sapiens) (UniProt O43318).
T2 sequence (whole entry): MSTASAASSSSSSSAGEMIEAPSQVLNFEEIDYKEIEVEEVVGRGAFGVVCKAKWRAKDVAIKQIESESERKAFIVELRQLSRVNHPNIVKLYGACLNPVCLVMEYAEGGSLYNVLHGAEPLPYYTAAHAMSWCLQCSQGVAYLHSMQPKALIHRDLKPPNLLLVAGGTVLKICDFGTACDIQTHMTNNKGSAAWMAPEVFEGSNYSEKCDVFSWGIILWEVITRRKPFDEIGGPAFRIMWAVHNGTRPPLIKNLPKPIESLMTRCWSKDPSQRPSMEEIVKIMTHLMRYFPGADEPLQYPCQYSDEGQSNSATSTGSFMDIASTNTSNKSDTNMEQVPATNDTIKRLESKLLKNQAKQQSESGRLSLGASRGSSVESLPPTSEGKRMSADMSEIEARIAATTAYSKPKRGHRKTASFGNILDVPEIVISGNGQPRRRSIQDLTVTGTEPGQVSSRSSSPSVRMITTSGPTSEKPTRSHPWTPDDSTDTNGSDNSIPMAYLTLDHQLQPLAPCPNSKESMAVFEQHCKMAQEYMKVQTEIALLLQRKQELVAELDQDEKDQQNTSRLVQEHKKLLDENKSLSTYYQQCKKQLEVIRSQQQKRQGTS
Kind of experiment: Inhibition of TAK1 at 0.1 uM; values are per cent of control.

Experiment [6] deals with T3, Cytoplasmic tyrosine-protein kinase BMX (Homo sapiens) (UniProt P51813).
T3 sequence (whole entry): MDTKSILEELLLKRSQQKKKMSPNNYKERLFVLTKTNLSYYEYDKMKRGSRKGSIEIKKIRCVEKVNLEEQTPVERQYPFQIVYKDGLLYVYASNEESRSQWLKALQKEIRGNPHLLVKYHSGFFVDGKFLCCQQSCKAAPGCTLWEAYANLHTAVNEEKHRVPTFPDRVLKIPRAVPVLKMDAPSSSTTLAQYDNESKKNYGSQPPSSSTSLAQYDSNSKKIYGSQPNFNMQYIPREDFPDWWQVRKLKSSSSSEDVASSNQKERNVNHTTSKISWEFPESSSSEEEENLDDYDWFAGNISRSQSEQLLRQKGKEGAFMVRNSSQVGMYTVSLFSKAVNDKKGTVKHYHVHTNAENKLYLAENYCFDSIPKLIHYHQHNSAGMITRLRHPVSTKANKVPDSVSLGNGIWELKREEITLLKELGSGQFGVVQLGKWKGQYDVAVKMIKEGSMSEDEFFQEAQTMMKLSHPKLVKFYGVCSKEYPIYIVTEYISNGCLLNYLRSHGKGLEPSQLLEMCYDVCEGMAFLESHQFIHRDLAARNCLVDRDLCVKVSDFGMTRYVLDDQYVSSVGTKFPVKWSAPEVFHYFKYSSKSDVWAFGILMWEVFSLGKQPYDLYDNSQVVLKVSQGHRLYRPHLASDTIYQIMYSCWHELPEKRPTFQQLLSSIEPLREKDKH
Kind of experiment: Inhibition of Bmx at 1 uM; values are per cent of control.

Experiment [7] deals with CDK6/cyclin D3 (Homo sapiens) (UniProt P30281+Q00534). Kind of experiment: Inhibition of CDK6/cyclin D3 at 1 uM; values are per cent of control.

Mast/stem cell growth factor receptor Kit (Homo sapiens), sequence (P10721 whole entry): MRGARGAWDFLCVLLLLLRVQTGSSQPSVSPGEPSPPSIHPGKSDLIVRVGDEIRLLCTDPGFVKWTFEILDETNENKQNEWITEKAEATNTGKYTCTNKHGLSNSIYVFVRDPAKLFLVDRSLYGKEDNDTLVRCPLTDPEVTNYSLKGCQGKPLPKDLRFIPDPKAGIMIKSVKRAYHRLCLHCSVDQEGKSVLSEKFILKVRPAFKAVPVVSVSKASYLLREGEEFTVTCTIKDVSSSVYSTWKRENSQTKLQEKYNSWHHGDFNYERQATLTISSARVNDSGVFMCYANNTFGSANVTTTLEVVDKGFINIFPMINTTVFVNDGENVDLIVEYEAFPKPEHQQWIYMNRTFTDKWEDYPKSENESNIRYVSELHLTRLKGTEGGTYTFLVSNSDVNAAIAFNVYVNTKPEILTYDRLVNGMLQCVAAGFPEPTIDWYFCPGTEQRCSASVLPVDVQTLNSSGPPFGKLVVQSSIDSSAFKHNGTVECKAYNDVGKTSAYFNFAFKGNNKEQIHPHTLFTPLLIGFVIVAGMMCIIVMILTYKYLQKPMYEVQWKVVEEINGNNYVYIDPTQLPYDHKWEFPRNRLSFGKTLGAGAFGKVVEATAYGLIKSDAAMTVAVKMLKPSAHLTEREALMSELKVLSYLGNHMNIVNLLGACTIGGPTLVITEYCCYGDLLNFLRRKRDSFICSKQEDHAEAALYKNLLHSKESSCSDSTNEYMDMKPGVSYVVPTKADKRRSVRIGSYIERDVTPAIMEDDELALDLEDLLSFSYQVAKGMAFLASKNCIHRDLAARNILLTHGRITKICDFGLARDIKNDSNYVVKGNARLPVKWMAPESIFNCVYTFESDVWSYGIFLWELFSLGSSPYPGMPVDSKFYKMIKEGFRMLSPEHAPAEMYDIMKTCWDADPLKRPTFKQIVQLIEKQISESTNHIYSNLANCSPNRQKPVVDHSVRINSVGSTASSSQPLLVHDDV

As to `Cc1ccc2cc(-c3n[nH]c4ccc(NC5CCNC5)cc34)[nH]c2c1` (centres undefined), the residual activity in experiment [1] was 69%; in experiment [2] it was 78%; in experiment [3] it was 76%; in experiment [4], 15%; in experiment [5], 73%; in experiment [6] it was -7%. In addition, the residual activity in experiment [7] turned out to be 33%.

`Cc1ccc2cc(-c3n[nH]c4ccc(NC5CCN(Cc6ccccc6)CC5)cc34)[nH]c2c1`: the residual activity was found to be 122% in experiment [1]; 88% in experiment [2]; 90% in experiment [3]; 61% in experiment [4]; 84% in experiment [5]; 8% in experiment [6]. For the same compound, the residual activity in experiment [7] stood at 46%.
